{"source": "patent US20240368605A1", "about": "“USE OF SPLICE SWITCHING OLIGONUCLEOTIDES FOR EXON SKIPPING-MEDIATED KNOCKDOWN OF PIM2” (INSTITUT NATIONAL DE LA SANTÉ ET DE LA RECHERCHE MÉDICALE, priority 2021, published 2024)", "key": {"[1]": {"tested_on": "p21^Cip1/WAF1", "assay": "p21^Cip1/WAF1 protein expression in XG21 cells", "type": "cell-based, human", "conditions": "XG21 cells treated conjointly by MG-132 and PIMi", "source_text": "(§1) Like p27^Kip1, p21^Cip1/WAF1 is a tight-binding inhibitor of CDKs and inhibits cell cycle entry into S phase (Elledge et al., 1996). Plasmablast commitment leads to a significant increase of the CDKN1A gene, which encodes p21^Cip1/WAF1, and this independently to the expression of TP53 (data not shown). […] We then wondered whether PIM2 could modify p21^Cip1/WAF1 expression. […] To address this scenario, we developed endogenous protein immunoprecipitation (IP) and found in generated PBs and XG21 cell line as well that PIM2, p21^Cip1/WAF1 and HSP90β form a cytoplasmic multiprotein complex (data not shown)."}, "[2]": {"tested_on": "p21^Cip1/WAF1", "assay": "CDKN1A gene and p21^Cip1/WAF1 protein expression in PBs", "type": "cell-based, human", "conditions": "PBs treated conjointly by MG-132 and PIMi", "source_text": "as §1"}, "[3]": {"tested_on": "p21^Cip1/WAF1/Procaspase 3 complex", "assay": "FRET between p21^Cip1/WAF1 and Procaspase 3", "type": "cell-based", "conditions": "added to the cell culture", "source_text": "(§2) The differentiation of immature monocytes is associated with a relocalization of nuclear p21^Cip1/WAF1 to the cytoplasm where the protein participates to apoptosis blockage (Asada, 1999). In addition, Suzuki et al. ascribed the formation of a Procaspase 3/p21^Cip1/WAF1 complex in the context of resistance to Fas-mediated cell death owing to the phosphorylation of p21 by protein kinase A (Suzuki et al., 2000). We wanted therefore to explore whether p21^Cip1/WAF1 may bind Procaspase 3 and developed to this end a FRET approach which detected a signal of energy transfer compatible with such physical interaction. […] We then confirmed the binding between p21^Cip1/WAF1 and Caspase 3 in XG21 cells and in PBs by IP (data not shown). Finally, to confirm the anti-apoptotic role of cytoplasmic p21^Cip1/WAF1 in PBs we inhibited p21^Cip1/WAF1 expression by a siRNA targeting CDKN1A in in vitro D4 B cells (data not shown) and found an activation of the execution of apoptosis characterized by the detection of the p17-fragment cleavage of caspase 3 in parallel to the cleavage of PARP (data not shown) and similar results were found in XG21 cells (data not shown). […] The role of PIM2 is to stabilize p21^Cip1/WAF1 protein in the cytoplasm allowing therefore the formation a multiprotein complex which inhibits Caspase 3 full activation (data not shown)."}, "[4]": {"tested_on": "PBs", "assay": "Number of PBs in S-phase of the cell cycle", "type": "cell-based, human", "source_text": "(§3) Since PIM2 acts at multiple cellular levels, we wanted to investigate how this kinase impacts this step of the differentiation. […] To explore this hypothesis, we investigated the G1/S transition of the cell cycle by using the multiple myeloma-derived cell line XG21 which presents an IL-6/STAT3-dependent PIM2 expression and proliferation (data not shown). To this end, we established a double thymidine block to arrest cells in G1-phase, and then released thymidine before subsequent cell cycle analysis. […] In presence of PIM2 blockade regardless of the type of inhibition, cells remained largely arrested in G1 phase until 16 h before starting to die (data not shown). The transition of G1 to S phase of the cell cycle requires the phosphatase CDC25A. We found a significant increase of CDC25A gene expression in PBs compared to CD23+ aBC and chemical inhibition of the phosphatase led to a dramatic decrease of the number of PBs in S phase (data not shown). We then wondered whether PIM2 has an effect on CDC25A as described for PIM1 which increased the catalytic activity after its binding to the phosphatase (Mochizuki et al., 1999). By western blot we detected CDC25A protein in PBs which disappeared in presence of PIMi (data not shown). PIM2 blockade led also to the downregulation of CDC25A and MKI67 gene expression (data not shown)."}, "[5]": {"tested_on": "PBs", "assay": "Mitochondria/Caspase 3-driven apoptosis and viability of PBs", "type": "cell-based, human", "source_text": "Mitochondrial-driven cell death is activated once the mitochondria lose the ability to maintain the inner membrane potential, resulting in the release of proapoptotic proteins into the cytosol. Commitment towards PBs is sustained by an extensive reconfiguration of the epigenetic landscape and of gene expression patterns, both showing that the most prominent function involves cell death and survival (Caron et al., 2015). […] We then investigated the different cell subsets generated through the differentiation model at the protein level for factors involved in apoptosis triggered by mitochondria (data not shown). The PBs compared to all other subsets increased the expression of pBAD and XIAP, both proteins counteract the apoptotic pathway and were described in PIM2-induced survival effect (data not shown) (Fox, 2003; Macdonald et al., 2006; Yan et al., 2003). In accordance with this finding and despite a strong increase in procaspase 3 protein (32 kDa size), PBs decrease the autocatalytic activity of Caspase 3 and therefore the production of p19/p17 apoptosis executors as highlighted by the low levels of cleaved PARP (data not shown) (Ponder and Boise, 2019). […] In addition, we found in P2/CD23+ cells a complete degradation of PARP which illustrate the fact that the apoptosis process is consubstantially associated with the B cell terminal differentiation if cells are not otherwise protected (data not shown).\nWe then inhibited PIM2 which led to an intense activation of Caspase 3 and a decrease of viability of PBs. The latter was rescued by the Caspase 3 inhibitor Q-DEVD-OPH (data not shown).\nas §2"}, "[6]": {"tested_on": "MM", "assay": "Combinations of increasing drug-concentration of PIM inhibitor and MCL1 inhibitor", "type": "cell-based", "conditions": "increasing concentrations of both drugs"}, "[7]": {"tested_on": "CDC25A", "assay": "CDC25A protein in PBs by western blot", "type": "cell-based, human", "source_text": "as §3"}, "[8]": {"tested_on": "ePCs", "assay": "Apoptosis markers in early plasma cells (ePCs) by western blot", "type": "cell-based, human", "source_text": "Plasma cell maturation is a continuum that spans from PBs to fully mature PCs corresponding to long-lived PCs such as those residing in the bone marrow (BM) PC niche where their survival depends on various extrinsic factors. […] We then explored PIM2 expression at the protein level in CD138^+ or BCMA^+ PCs on BM biopsies from patients free from malignant hemopathies obtained from the Pathology department of our institution (F. Llamas-Gutierrez). Single staining was firstly tested by chromogenic immunohistochemistry (CIH) or immunofluorescence (IF) on paraffin-embedded tissue sections followed by multiple staining by IF. Both, CD138 and BCMA staining allowed to identify PCs with, in some areas, high number of positive cells that possibly were close from CD41-positive megakaryocytes and enriched for IL-6 expression (data not shown). In addition, all observed BM PCs expressed PIM2 with a strong intensity (data not shown). To determine the regulation and functional contribution of PIM2 in mature PCs, we produced CD38^hi/CD138^+ PCs by leaving D7 to D10 generated PBs in culture media containing IL-2, IL-10, IL-6 and IFN-alpha (data not shown). Under this condition, the number of CD138^+ cells increased progressively while the number of cells in S-phase of the cell cycle decreased gradually with, respectively, 60.3±8.1% and 3.5±0.3% at D10 (data not shown). In parallel, cells decreased and increased, respectively, the expression of CDC25A and CDKN1B with for the latter, p27^Kip1 protein exclusively detectable in the nucleus at D10 as expected for fully differentiated cells arrested in the cell cycle (data not shown). […] In addition, in these cells, compared to PBs, we observed an increase of PIM2 gene expression as well as its protein level (data not shown).\nWe then investigated the other factors described above at the protein levels and detected by western blot in ePCs compared to PBs—and besides p27^Kip1 and PIM2—a significant elevation of Caspase 3 and p21^Cip1/WAF1 protein expression (data not shown)."}, "[9]": {"tested_on": "activated B cells diverted from the PB commitment", "assay": "Apoptosis of activated B cells diverted from the PB commitment at D6", "type": "cell-based, human", "conditions": "D6, original in vitro model", "source_text": "Mitochondrial-driven cell death is activated once the mitochondria lose the ability to maintain the inner membrane potential, resulting in the release of proapoptotic proteins into the cytosol. Commitment towards PBs is sustained by an extensive reconfiguration of the epigenetic landscape and of gene expression patterns, both showing that the most prominent function involves cell death and survival (Caron et al., 2015). […] We then investigated the different cell subsets generated through the differentiation model at the protein level for factors involved in apoptosis triggered by mitochondria (data not shown). The PBs compared to all other subsets increased the expression of pBAD and XIAP, both proteins counteract the apoptotic pathway and were described in PIM2-induced survival effect (data not shown) (Fox, 2003; Macdonald et al., 2006; Yan et al., 2003). In accordance with this finding and despite a strong increase in procaspase 3 protein (32 kDa size), PBs decrease the autocatalytic activity of Caspase 3 and therefore the production of p19/p17 apoptosis executors as highlighted by the low levels of cleaved PARP (data not shown) (Ponder and Boise, 2019). […]"}, "[10]": {"tested_on": "XG21", "assay": "Caspase 3 activation in XG21", "type": "cell-based, human", "source_text": "as §2"}, "[11]": {"tested_on": "MM cell lines", "assay": "PIM2 protein expression and drug effects in MM cell lines", "type": "cell-based, human", "conditions": "western blot, after proteasome inhibition", "source_text": "Using data of the Dependency Map (DepMap) portal (https://depmap.org/portal/), we evaluated mRNA expression of PIM2 in silico across >700 different malignant cell lines, including 20 MM cell lines. […] This was specific to PIM2, as PIM1 expression is not overexpress in MM cell lines (data not shown). We confirm the high expression of PIM2 protein in eight MM lines, which correlates well with RNA expression, noting however a large heterogeneity of expression (data not shown) Also, using CRISPR screening of DepMap data, dependency scores of PIM2 underline their specific importance for MM cell survival compared to all cell lines tested, and as compared to PIM1 data not shown). To evaluate potential correlations between PIM2 expression and clinicals outcomes, we analyzed TT2 cohort of the university of Arkansas and within the myeloma patient molecular subgroups. […] Our analysis of the CoMMpass cohort also as PIM2 expression above the cutoff (determined by MaxStat method) in the large dataset correlated with shorter overall survival (P=0.000573) (data not shown). […] These last result fit well with the fact that PIM2 protein expression increase after proteasome inhibition with drug as carfilzomib as show by western blot in MM cell lines (data not shown), leading to an increase of their prosurvival activity as shown described (Adam et al., 2015)."}}}
{"molecule": "N[C@@H]1CCCN(c2c(/C=C3\\SC(=O)NC3=O)cccc2-c2ccccc2)C1", "note": "[PIMi, AZD1208]", "values": [{"measurement": "p21^Cip1/WAF1 expression", "setting": "[1]", "result": "maintained their p21^Cip1/WAF1 expression but in a poly-ubiquitinylated form"}, {"measurement": "p21^Cip1/WAF1 expression", "setting": "[2]", "result": "maintained their p21^Cip1/WAF1 expression but in a poly-ubiquitinylated form"}, {"measurement": "FRET signal of energy transfer p21^Cip1/WAF1 / Procaspase 3", "setting": "[3]", "result": "abolished the signal"}, {"measurement": "number of PBs in S-phase", "setting": "[4]", "result": "decreased drastically, in a dose-dependent manner"}, {"measurement": "cleaved PARP protein", "setting": "[5]; PBs", "result": "production of cleaved PARP protein"}, {"measurement": "mitochondrial depolarization", "setting": "[5]; PBs", "result": "strong mitochondrial depolarization"}, {"measurement": "pBAD and XIAP protein", "setting": "[5]; PBs", "result": "decrease of pBAD and XIAP"}, {"measurement": "synergy of the combination AZD1208 and AZD5991", "setting": "[6]", "result": "hard synergy"}, {"measurement": "CDC25A protein in PBs", "setting": "[7]", "result": "disappeared"}, {"measurement": "Caspase 3 activation", "setting": "[8]", "result": "activation of Caspase 3 with production of the catalytic active p17 fragment"}, {"measurement": "XIAP protein", "setting": "[8]", "result": "decrease of XIAP protein"}, {"measurement": "cleaved-Caspase 9 fragment", "setting": "[8]", "result": "increase of cleaved-Caspase 9 fragment"}, {"measurement": "p21^Cip1/WAF1 expression", "setting": "[8]", "result": "decrease of p21^Cip1/WAF1 expression"}]}
{"molecule": "CC(C)[C@H](NC(=O)c1ccc2ccccc2n1)C(=O)N[C@@H](CC(=O)O)C(=O)COc1c(F)cccc1F", "note": "[QVD-OPH]", "values": [{"measurement": "rescue from apoptosis", "setting": "[9]", "result": "rescued from apoptosis"}]}
{"molecule": "O=C(Nc1ccc(Cl)c(C(F)(F)F)c1)NC1CCC(Oc2ccc(C(F)(F)F)cn2)CC1", "note": "(centres unmarked) [UC2288]", "values": [{"measurement": "Caspase 3 activation", "setting": "[5]; PBs", "result": "dose-dependent increase of Caspase 3 activation"}, {"measurement": "apoptosis induction", "setting": "[5]; by inhibiting p21^Cip1/WAF1 protein expression", "result": "induced a Caspase 3-mediated apoptosis"}, {"measurement": "Caspase 3 activation", "setting": "[10]", "result": "dose-dependent increase of Caspase 3 activation"}]}
{"molecule": "CC(C)C[C@H](NC(=O)[C@H](CCc1ccccc1)NC(=O)CN1CCOCC1)C(=O)N[C@@H](Cc1ccccc1)C(=O)N[C@@H](CC(C)C)C(=O)[C@@]1(C)CO1", "note": "[carfilzomib]", "values": [{"measurement": "PIM2 protein expression", "setting": "[11]", "result": "increase"}]}
{"molecule": "Q-DEVD-OPH", "values": [{"measurement": "viability of PBs after PIM2 inhibition", "setting": "[5]; Caspase 3 inhibitor added to PIM2-inhibited PBs", "result": "rescued"}, {"measurement": "cell viability after UC2288", "setting": "[5]; Caspase 3 inhibitor added to UC2288-treated cells", "result": "restores cell viability"}]}
